# Reference: patent US10160972B2, “Methods and materials for treating cancer” (Mayo Foundation for Medical Education and Research, priority 2012, dated 2018)
# Assays:
# Type in all cases: cell-based, human
# [1] = tested on: Caki1, A498, Caki2, and ACHN ccRCC cell lines; test: PARP cleavage western blot (apoptosis)
# Procedure: (§1) Protein extracts, electrophoresis, and membrane transfers were prepared as previously described (Copland J A, Marlow L A, Kurakata S, Fujiwara K, Wong A K, Kreinest P A, et al. Novel highaffinity PPARgamma agonist alone and in combination with paclitaxel inhibits human anaplastic thyroid carcinoma tumor growth via p21WAF1/CIP1. Oncogene. 2006; 25:2304-17). Primary antibodies included SCD1, PARP, DDIT3, BiP, sXBP1, and β-actin. A Supersignal chemiluminescent kit was used to perform detection.
# [2] = tested on: Caki1 and A498 cells; test: Western blot of ER stress markers; details: 75 nM drug or shSCD780 knockdown, 48 hours
# Procedure: as §1
# [3] = tested on: T47D (PR+) breast cancer cells; test: Cell number growth inhibition assay
# Procedure: (§2) A number of cancer cell lines were tested to determine whether SCD1 protein expression correlates with growth inhibition of an SCD1 inhibitor in human cancer cell lines.
# (§3) Cells (20,000/ml) were plated in 12 well cell culture plates, allowed to attach and treated with the indicated dose of SCD1 inhibitor ([…]) or standard of care (gemcitabine). Cell number was counted using a Coulter Counter. As show in FIG. 7, the data are expressed as percent of DMSO control. Each value represents triplicates. Western analysis for SCD1 protein expression was performed on each cell line with beta-actin as the loading control.
# (§4) The following cell lines were studied using a similar method as that described above.
# [4] = tested on: Calu-1 lung cancer cells; test: Cell number growth inhibition assay
# Procedure: as §2, §3, §4
# [5] = tested on: T24 bladder cancer cells; test: Cell number growth inhibition assay
# Procedure: as §2, §3, §4
# [6] = tested on: DU-145 prostate cancer cells; test: Cell number growth inhibition assay
# Procedure: as §2, §3, §4
# [7] = tested on: SNU449 liver cancer cells; test: Cell number growth inhibition assay; details: SNU449
# Procedure: as §2, §3, §4
# [8] = tested on: Caco2 colon cancer cells; test: Cell number growth inhibition assay
# Procedure: as §2, §3, §4
# [9] = tested on: MCF-7 (ER+/PR+) breast cancer cells; test: Cell number growth inhibition assay
# Procedure: as §2, §3, §4
# [10] = tested on: HT1376 bladder cancer cells; test: Cell number growth inhibition assay
# Procedure: as §2, §3, §4
# [11] = tested on: HT29 colon cancer cells; test: Cell number growth inhibition assay
# Procedure: as §2, §3, §4
# [12] = tested on: BCJ4T bladder cancer cells; test: Cell number growth inhibition assay
# Procedure: as §2, §3, §4
# [13] = tested on: OVCA420 ovarian cancer cells; test: Cell number growth inhibition assay
# Procedure: as §2, §3, §4
# [14] = tested on: HOV TAX2 ovarian cancer cells; test: Cell number growth inhibition assay
# Procedure: as §2, §3, §4
# [15] = tested on: KTC3 thyroid cancer cells; test: Cell number growth inhibition assay
# Procedure: as §2, §3, §4
# [16] = tested on: Mela 11 melanoma cells; test: Cell number growth inhibition assay
# Procedure: as §2, §3, §4
# [17] = tested on: Caki1, A498, Caki2, and ACHN ccRCC cells; test: Gene array expression analysis; details: 75 nM, 24 hours, vs DMSO control
# Procedure: Gene array expression analysis was performed using Affymetrix Human Genome U133 Plus 2.0 Array chip. The details of the data processing and methodology were previously described in (Tun H W, Marlow L A, von Roemeling C A, Cooper S J, Kreinest P, Wu K, et al. Pathway signature and cellular differentiation in clear cell renal cell carcinoma. PLoS One. 2010; 5:e10696). Gene expression data was deposited at Gene Expression Omnibus (Accession#GSE41485). Pathway analysis was performed using IPA (Ingenuity® Systems).
# [18] = tested on: Caki1, A498, Caki2, and ACHN ccRCC cell lines; test: OA-BSA rescue of growth inhibition; details: IC50 doses of A939572 + OA-BSA vs DMSO+BSA control, all four cell lines
# Procedure: Drug stocks were prepared in DMSO. Monotherapeutic treatment identified drug dose-response. […] Temsirolimus dosing was performed as described in the text.
# [19] = tested on: Panc cells; test: Cell number growth inhibition assay
# Procedure: as §2, §3
# [20] = tested on: MiaPaca cells; test: Cell number growth inhibition assay; details: cell number as percent of DMSO control
# Procedure: as §2, §3
# [21] = tested on: A498 cells; test: qPCR of five ER stress genes
# Procedure: (§5) An RNAqueous Midi Kit was utilized to extract and purify RNA from cell lines. Human tissue RNA was prepared using TRIzol® per manufacturer's protocol followed by purification using the RNAqueous Midi Kit. The O.D. 260/280 ratio of the mRNA was at least 1.8 and the 18s/28s bands were verified on a 1% agarose gel. cDNA was prepared from purified RNA samples using High Capacity cDNA Reverse Transcriptase Kit per manufacturer's instruction. TaqMan®Fast Universal PCR Master Mix and TaqMan®FAMTM dye-labeled probes including POLR2A (Hs00172187_m1) (normalization control), SCD1 (Hs01682761_m1), HSPA5 (Hs99999174_m1), CEBPβ (CEBPB Hs00270923_s1), GADD45A (Hs00169255_m1), DDIT3 (Hs01090850_m1), and HERPUD1 (Hs01124269_m1) were combined with prepared cDNA samples to analyze relative mRNA expression via qPCR. Fold change values were compared between normal and tumor, non-target scrambled lentiviral and target lentiviral infected, and DMSO vs. A939572 treated samples using the ΔΔCt method (Schmittgen T D, Livak K J. Analyzing real-time PCR data by the comparative C(T) method. Nat Protoc. 2008; 3:1101-8).
# (§6) In order to validate the specificity of ER stress induction mediated by both A939572 and shSCD780, rescue assays were performed using OA-BSA in Caki1 and A498 cells qPCR analysis of five ER stress genes identified in the gene array including BiP, CHOP, HERPUD1 (homocysteine-inducible, ER-stress inducible, ubiquitin-like-1), GADD45a (DNA damage inducible transcript 1, DDIT1), and CEBPβ (CCAAT/enhancer binding protein beta) were examined.
# [22] = tested on: Caki1 cells; test: qPCR of five ER stress genes
# Procedure: as §5, §6
smiles,measurement,setting,value
CNC(=O)c1cccc(NC(=O)N2CCC(Oc3ccccc3Cl)CC2)c1 [A939572],apoptosis by PARP cleavage with addition of OA-BSA,[1]; A939572 + OA-BSA,blocked apoptosis
same,apoptosis by PARP cleavage,"[1]; western blot, all four cell lines",induced apoptosis
same,"protein expression of ER stress markers BiP, CHOP, spliced-XBP1",[2],amplified expression
same,growth inhibition,[3],growth inhibited in a dose dependent fashion
same,growth inhibition,[4],not growth inhibited
same,growth inhibition,[5],growth inhibited in a dose dependent fashion
same,growth inhibition,[6],growth inhibited in a dose dependent fashion
same,growth inhibition,[7],growth inhibited in a dose dependent fashion
same,IC50,"[7]; read-out: estimated IC50 concentration, growth inhibition",~100 nM
same,growth inhibition,[8],growth inhibited in a dose dependent fashion
same,growth inhibition,[9],growth inhibited in a dose dependent fashion
same,growth inhibition,[10],growth inhibited in a dose dependent fashion
same,growth inhibition,[11],growth inhibited in a dose dependent fashion
same,growth inhibition,[12],not growth inhibited
same,growth inhibition,[13],growth inhibited in a dose dependent fashion
same,growth inhibition,[14],growth inhibited in a dose dependent fashion
same,growth inhibition,[15],growth inhibited in a dose dependent fashion
same,growth inhibition,[16],not growth inhibited
same,expression of ER stress response genes associated with UPR,[17],increased expression of ER stress response genes
same,growth inhibition with addition of OA-BSA,[18],prevented A939572 mediated growth inhibition
same,growth inhibition,[19],growth inhibited at only high levels
same,growth inhibition,[20],growth inhibited in a dose dependent fashion
same,ER stress gene expression with addition of OA-BSA,"[21]; A498, + OA-BSA",blocked
same,"mRNA expression of ER stress genes BiP, CHOP, HERPUD1, GADD45a, CEBPβ","[21]; A498, vs DMSO+BSA or NT control",significantly increased levels
same,ER stress gene expression with addition of OA-BSA,"[22]; Caki1, + OA-BSA",blocked
same,"mRNA expression of ER stress genes BiP, CHOP, HERPUD1, GADD45a, CEBPβ","[22]; Caki1, vs DMSO+BSA or NT control",significantly increased levels
